IC50 data for 46 molecules are collected here from patent publication US8044068B2, “Aminopyrrolidine compound” (Taisho Pharmaceutical Co., Ltd, priority 2006, dated 2011).

In this experiment the target is T1, human MC4 receptor (Homo sapiens, UniProt P32245).
T1 construct: purchased Biolinks K.K; host or cells: HEK-293
T1 sequence (P32245 whole entry): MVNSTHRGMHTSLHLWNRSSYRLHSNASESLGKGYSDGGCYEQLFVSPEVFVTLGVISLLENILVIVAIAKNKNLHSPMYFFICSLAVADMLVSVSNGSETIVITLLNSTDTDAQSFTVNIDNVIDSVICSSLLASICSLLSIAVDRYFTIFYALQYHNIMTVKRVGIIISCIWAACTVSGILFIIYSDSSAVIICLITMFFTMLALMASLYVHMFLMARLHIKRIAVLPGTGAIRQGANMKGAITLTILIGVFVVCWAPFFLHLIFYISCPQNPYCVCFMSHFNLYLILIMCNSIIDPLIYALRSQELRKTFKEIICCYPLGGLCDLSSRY
Briefly: MC4 receptor binding experiment ([125I]Nle4-D-Phe7-α-MSH displacement). The settings on record: human MC4 receptor expressing HEK-293 cell membrane; [125I]Nle4-D-Phe7-α-MSH 0.2 nM, 25° C. Here is the method: The MC4 receptor binding experiment was performed according to the method described in Pharmacology & Toxicology, 79, 161-165, 1996. The human MC4 receptor expressing-cell membrane obtained by expressing the human MC4 receptor in a HEK-293 cell was purchased from Biolinks K.K. The cell membrane was homogenized with 50 mM tris hydrochloride buffer (pH 7.4) containing 2 mM ethylenediaminetetraacetic acid, 10 mM calcium chloride, and 100 μM phenylmethylsulfonyl fluoride. The homogenate was centrifuged at 48,000×g at 4° C. for 20 min. The sediment obtained by centrifugation was rehomogenized with the same buffer, and the homogenate was centrifuged at 48,000×g at 4° C. for 20 min. This procedure was repeated twice. The sediment was suspended in 50 mM tris hydrochloride buffer (pH 7.4) containing 2 mM ethylenediaminetetraacetic acid, 10 mM calcium chloride, 100 μM phenylmethylsulfonyl fluoride, and 0.1% bovine serum albumin at a protein concentration of 100 μg/ml, and the suspension was used as a crude membrane preparation for the binding experiment. The crude membrane preparation (0.25 ml, 25 μg protein) was reacted with [^125I]Nle^4-D-Phe^7-α-MSH (final concentration, 0.2 nM) at 25° C. for 120 min. After completion of the reaction, the reaction solution was filtered by suction, using a cell harvester for the receptor binding experiment, onto a GF/C glass fiber filter paper immersed in 50 mM tris hydrochloride buffer (pH 7.4) containing 0.5% bovine serum for 2 h. Radioactivity on the filter paper was measured using a γ counter. The quantity of binding in the presence of 1 μM Nle^4-D-Phe^7-α-MSH was obtained as nonspecific binding, and specific binding was obtained by deducting the nonspecific binding from the total quantity, binding in the absence of 1 μM Nle^4-D-Phe^7-α-MSH. The test drug was dissolved in 100% DMSO solution and added to the membrane preparation at the same time as [^125I]Nle^4-D-Phe^7-α-MSH. The IC50 value was obtained from the inhibition curve in the range of 10^−10 to 10^−5 M. The binding test results of representative compounds are shown in Table 21 as examples.
Consider `Cc1cc(N[C@@H]2CN(C(=O)Cc3ccc(OC(F)(F)F)cc3)C[C@H]2O)nc2ccc(O)cc12` [Compound 12-007], for which the IC50 (commonly the concentration at which inhibition is half-maximal) was 14 nM. The result for `O=C(c1ccc(F)cc1)C1CCN(c2nc(N[C@H]3CCN(C(=O)Cc4ccccc4-c4ccccc4)C3)nc3ccccc23)CC1` [Compound 1-073] reads 39 nM; that for `COc1ccc2nc(N[C@@H]3CN(C(=O)Cc4ccc(OC(F)(F)F)cc4)C[C@H]3O)cc(N3CCOCC3)c2c1` [Compound 12-001], 2.9 nM; that for `COc1ccc2nc(N[C@@H]3CN(C(=O)Cc4ccc(OC(F)(F)F)cc4)C[C@H]3O)nc(N[C@@H]3CCN(S(C)(=O)=O)C3)c2c1` [Compound 11-012], 0.3 nM. The result for `Cc1cc(N2CCS(=O)(=O)CC2)cc(N[C@H]2CCN(C(=O)Cc3ccc(OC(F)(F)F)cc3)C2)n1` [Compound 5-006, 1-((S)-3-(4-(1,1-dioxo-1λ^6-thiomorpholin-4-yl)-6-methylpyridin-2-ylamino)pyrrolidin-1-yl)-2-(4-trifluoromethoxyphenyl)ethanone] reads 9.3 nM; that for `COc1ccc2nc(N[C@H]3CCN(C(=O)Cc4ccc(OC(F)(F)F)cc4)C3)nc(N3CCC(S(C)(=O)=O)CC3)c2c1` [Compound 1-078], 1.5 nM; that for `O=C(Cc1ccc(OC(F)(F)F)cc1)N1C[C@@H](O)[C@H](Nc2nc(N3CCOCC3)c3cscc3n2)C1` [Compound 8-006], 10 nM.

In turn, `COc1ccc2nc(N[C@H]3CCN(C(=O)Cc4ccc(OC(F)(F)F)cc4)C3)nc(N[C@@H]3CCN(S(C)(=O)=O)C3)c2c1` [Compound 1-040] yielded an IC50 of 0.4 nM. Then `O=C(Cc1ccc(OC(F)(F)F)cc1)N1CC[C@H](Nc2nc(N3CCC(N4CCOCC4)CC3)c3ccc(F)cc3n2)C1` [Compound 1-092], with 37 nM. For the molecule `COc1cc(N[C@H]2CCN(C(=O)Cc3ccc(OC(F)(F)F)cc3)C2)nc2ccc(C)cc12` [Compound 3-034], the IC50 turned out to be 16 nM. `COc1ccc2nc(N[C@@H]3CN(C(=O)Cc4ccc(OC(F)(F)F)cc4)C[C@H]3OC)cc(C)c2c1` [Compound 12-010] registered a 50% inhibitory concentration (IC50) of 3 nM. `Cc1cc(N[C@H]2CCN(C(=O)Cc3ccc(OC(F)(F)F)cc3)C2)nc2ccc(O)cc12` [Compound 3-022]: the IC50 stood at 9.5 nM.

Turning to `O=C(Cc1ccccc1-c1ccccc1)N1CC[C@H](Nc2nc(N3CCc4ccccc4C3)c3ccc(F)cc3n2)C1` [Compound 1-101], the IC50 was 68 nM. The result for `CC(=O)N1CCN(c2nc(N[C@@H]3CN(C(=O)Cc4ccc(OC(F)(F)F)cc4)C[C@H]3O)nc3cscc23)CC1` [Compound 8-007] reads 10 nM; that for `O=C(Cc1ccccc1-c1ccccc1)N1CC[C@H](Nc2nc(N3CCC(n4ccnc4)CC3)c3ccccc3n2)C1` [Compound 1-095], 22 nM. The result for `CC(=O)N1CCN(c2nc(N[C@H]3CCN(C(=O)Cc4ccc(OC(F)(F)F)cc4)C3)nc3cscc23)CC1` [Compound 8-004] reads 11 nM. The result for `CO[C@@H]1CCN(c2cc(C)nc(N[C@@H]3CN(C(=O)Cc4ccc(OC(F)(F)F)cc4)C[C@H]3O)n2)C1` [Compound 13-004] reads 46 nM; that for `Cc1ccc2nc(N[C@H]3CCN(C(=O)Cc4ccc(OC(F)(F)F)cc4)C3)nc(N(C)C)c2c1` [Compound 1-003], 18 nM. `Cc1cc(N[C@H]2CCN(S(C)(=O)=O)C2)nc(N[C@H]2CCN(C(=O)Cc3ccc(OC(F)(F)F)cc3)C2)n1` [Compound 4-022]: the IC50 was found to be 30 nM. In the case of `Cc1ccc2nc(N[C@@H]3CN(C(=O)Cc4ccc(OC(F)(F)F)cc4)C[C@H]3O)cc(C)c2c1` [Compound 12-004], the IC50 amounted to 13 nM. `CS(=O)(=O)N1CC[C@@H](Nc2nc(N[C@@H]3CN(C(=O)Cc4ccc(OC(F)(F)F)cc4)C[C@H]3O)nc3ccc(Cl)cc23)C1` [Compound 11-008] registered an IC50 of 1.3 nM. Then `COc1ccc2nc(N[C@H]3CCN(C(=O)Cc4ccc(OC(F)(F)F)cc4)C3)nc(N[C@@H]3CCN(C(C)=O)C3)c2c1` [Compound 1-032], with 0.4 nM.

For the molecule `Cc1cc(N[C@H]2CCN(C(=O)C3(c4ccc(Cl)cc4)CC3)C2)nc2ccc(O)cc12` [Compound 3-038], the IC50 stood at 20 nM. The result for `O=C1CN(c2nc(N[C@H]3CCN(C(=O)Cc4cc(F)ccc4-c4ccc(OC(F)(F)F)cc4)C3)nc3cc(F)ccc23)CCN1` [Compound 1-133] reads 4.4 nM; that for `O=C1CN(c2nc(N[C@H]3CCN(C(=O)C4(c5ccc(Cl)cc5)CC4)C3)nc3cc(F)ccc23)CCN1` [Compound 15-003], 26 nM; that for `COc1ccc2nc(N[C@H]3CCN(C(=O)Cc4ccc(OC(F)(F)F)cc4)C3)nc(N3CCN(C(=O)c4cccnc4)CC3)c2c1` [Compound 1-176], 1 nM. The molecule `CO[C@@H]1CN(C(=O)Cc2ccc(OC(F)(F)F)cc2)C[C@H]1Nc1cc(N2CCS(=O)(=O)CC2)cc(C)n1` [Compound 14-003] showed an IC50 of 7.4 nM. The result for `O=C(Cc1ccc(OC(F)(F)F)cc1)N1C[C@@H](O)[C@H](Nc2nc(N3CCOCC3)c3cc(Cl)ccc3n2)C1` [Compound 11-009] reads 6.1 nM; that for `Cc1cc(N2CCCOCC2)nc(N[C@H]2CCN(C(=O)Cc3ccc(OC(F)(F)F)cc3)C2)n1` [Compound 4-058], 28 nM. Then `Cc1cc(N2CCCCC2)nc(N[C@@H]2CN(C(=O)Cc3ccc(OC(F)(F)F)cc3)C[C@H]2O)n1` [Compound 13-005], with 21 nM; and `COc1ccc2nc(N[C@H]3CCN(C(=O)Cc4ccc(OC(F)(F)F)cc4)C3)nc(N(C)C)c2c1` [Compound 1-005], with 2.8 nM. Then `COc1ccc2nc(N[C@H]3CCN(C(=O)Cc4ccc(OC(F)(F)F)cc4)C3)cc(C)c2c1` [Compound 3-023], with 2.4 nM. In turn, `Cc1cc(N2CCOCC2)nc(N[C@H]2CCN(C(=O)Cc3ccc(OC(F)(F)F)cc3)C2)n1` [Compound 4-044] had an IC50 of 56 nM.

`Cc1cc(N2CCS(=O)(=O)CC2)nc(N[C@H]2CCN(C(=O)Cc3ccc(OC(F)(F)F)cc3)C2)n1` [Compound 4-054] came in with an IC50 of 39 nM. The result for `CO[C@@H]1CN(C(=O)Cc2ccc(OC(F)(F)F)cc2)C[C@H]1Nc1cc(N2CCOCC2)cc(C)n1` [Compound 14-002] reads 19 nM; that for `COc1ccc2nc(N[C@@H]3CN(C(=O)Cc4ccc(OC(F)(F)F)cc4)C[C@H]3O)nc(N3CCN(C(C)=O)CC3)c2c1` [Compound 11-015], 1 nM.

`CO[C@@H]1CN(C(=O)Cc2ccc(OC(F)(F)F)cc2)C[C@H]1Nc1cc(C)c2cc(O)ccc2n1` [Compound 12-008, 1-((3R,4R)-3-(6-hydroxy-4-methylquinolin-2-ylamino)-4-methoxypyrrolidin-1-yl)-2-(4-trifluoromethoxyphenyl)ethanone] returned an IC50 of 12 nM. In the case of `CS(=O)(=O)C1CCN(c2cc(N[C@H]3CCN(C(=O)Cc4ccc(OC(F)(F)F)cc4)C3)nc3ccsc23)CC1` [Compound 7-002, (S)-1-(3-(7-(4-methylsulfonylpiperidin-1-yl)thieno[3,2-b]pyridin-5-ylamino)pyrrolidin-1-yl)-2-(4-trifluoromethoxyphenyl)ethanone], the IC50 is 94 nM. `Cc1cc(N2CCOCC2)cc(N[C@@H]2CN(C(=O)Cc3ccc(OC(F)(F)F)cc3)C[C@H]2O)n1` [Compound 14-001, 1-((3R,4R)-3-hydroxy-4-(6-methyl-4-morpholin-4-ylpyridin-2-ylamino)pyrrolidin-1-yl)-2-(4-trifluoromethoxyphenyl)ethanone] registered an IC50 of 16 nM. Then `CN(C)C(=O)N1CCN(c2nc(N[C@H]3CCN(C(=O)Cc4ccc(OC(F)(F)F)cc4)C3)nc3ccccc23)CC1` [Compound 1-174], with 21 nM; and `CS(=O)(=O)C1CCN(c2nc(N[C@H]3CCN(C(=O)Cc4ccc(OC(F)(F)F)cc4)C3)nc3cscc23)CC1` [Compound 8-005], with 12 nM; and `CO[C@H]1CN(c2nc(N[C@H]3CCN(C(=O)Cc4ccc(OC(F)(F)F)cc4)C3)nc3ccccc23)C[C@H]1OC` [Compound 1-206], with 2.3 nM. Then `CO[C@@H]1CN(C(=O)Cc2ccc(OC(F)(F)F)cc2)C[C@H]1Nc1nc(C)cc(N2CCOCC2)n1` [Compound 13-008], with 36 nM; and `COc1ccc2nc(N[C@@H]3CN(C(=O)Cc4ccc(OC(F)(F)F)cc4)C[C@H]3O)cc(OC)c2c1` [Compound 12-017], with 3.3 nM; and `Cc1cc(N[C@@H]2CCN(S(C)(=O)=O)C2)nc(N[C@@H]2CN(C(=O)Cc3ccc(OC(F)(F)F)cc3)C[C@H]2O)n1` [Compound 13-002], with 25 nM. Then `COc1ccc2nc(N[C@@H]3CN(C(=O)Cc4ccc(OC(F)(F)F)cc4)C[C@H]3OC)cc(OC)c2c1` [Compound 12-018], with 3.4 nM.
